Measured values published in article PMC10937199 (ESMO Open, 2024).

Test system: patients with advanced solid tumors
Test: Safety
Assay type: in vivo, human
Details: Part A

COc1ccc([C@@H](O)c2cc(-c3ncnc4cc(N5CCOCC5)ccc34)c(F)cc2Cl)nn1 [Peposertib]
IRR (100 mg b.i.d., all grade): 0 n (%) | Immune-related AE (100 mg b.i.d., all grade): 0 n (%) | Serious TEAE (100 mg b.i.d., all grade): 0 n (%) | Serious TEAE, peposertib related (100 mg b.i.d., all grade): 0 n (%) | Serious TEAE, treatment related (100 mg b.i.d., all grade): 0 n (%) | TEAE (100 mg b.i.d., all grade): 3 (75.0) n (%) | TEAE, peposertib related (100 mg b.i.d., all grade): 2 (50.0) n (%) | TEAE, treatment related (100 mg b.i.d., all grade): 3 (75.0) n (%) | TEAEs leading to death (100 mg b.i.d., all grade): 0 n (%) | Treatment-related AE leading to death (100 mg b.i.d., all grade): 0 n (%) | IRR (100 mg b.i.d., grade ≥3): 0 n (%) | Immune-related AE (100 mg b.i.d., grade ≥3): 0 n (%) | Serious TEAE (100 mg b.i.d., grade ≥3): 0 n (%) | Serious TEAE, peposertib related (100 mg b.i.d., grade ≥3): 0 n (%) | Serious TEAE, treatment related (100 mg b.i.d., grade ≥3): 0 n (%) | TEAE (100 mg b.i.d., grade ≥3): 0 n (%) | TEAE, peposertib related (100 mg b.i.d., grade ≥3): 0 n (%) | TEAE, treatment related (100 mg b.i.d., grade ≥3): 0 n (%) | TEAEs leading to death (100 mg b.i.d., grade ≥3): 0 n (%) | Treatment-related AE leading to death (100 mg b.i.d., grade ≥3): 0 n (%) | Immune-related AE (200 mg b.i.d., all grade): 2 (18.2) n (%) | Serious TEAE (200 mg b.i.d., all grade): 6 (54.5) n (%) | Serious TEAE, peposertib related (200 mg b.i.d., all grade): 0 n (%) | Serious TEAE, treatment related (200 mg b.i.d., all grade): 3 (27.3) n (%) | TEAE (200 mg b.i.d., all grade): 11 (100.0) n (%) | TEAE, peposertib related (200 mg b.i.d., all grade): 10 (90.9) n (%) | TEAE, treatment related (200 mg b.i.d., all grade): 10 (90.9) n (%) | TEAEs leading to death (200 mg b.i.d., all grade): 0 n (%) | Treatment-related AE leading to death (200 mg b.i.d., all grade): 0 n (%) | IRR (200 mg b.i.d., grade ≥3): 0 n (%) | Immune-related AE (200 mg b.i.d., grade ≥3): 2 (18.2) n (%) | Serious TEAE (200 mg b.i.d., grade ≥3): 6 (54.5) n (%) | Serious TEAE, peposertib related (200 mg b.i.d., grade ≥3): 0 n (%) | Serious TEAE, treatment related (200 mg b.i.d., grade ≥3): 3 (27.3) n (%) | TEAE (200 mg b.i.d., grade ≥3): 7 (63.6) n (%) | TEAE, peposertib related (200 mg b.i.d., grade ≥3): 2 (18.2) n (%) | TEAE, treatment related (200 mg b.i.d., grade ≥3): 4 (36.4) n (%) | TEAEs leading to death (200 mg b.i.d., grade ≥3): 0 n (%) | Treatment-related AE leading to death (200 mg b.i.d., grade ≥3): 0 n (%) | Peposertib-related pneumonitis (250 mg b.i.d.): 25.0% | Serious TEAE: diarrhea (250 mg b.i.d.): 2 n | IRR (250 mg b.i.d., all grade): 0 n (%) | Immune-related AE (250 mg b.i.d., all grade): 3 (75.0) n (%) | Serious TEAE (250 mg b.i.d., all grade): 4 (100.0) n (%) | Serious TEAE, peposertib related (250 mg b.i.d., all grade): 2 (50.0) n (%) | Serious TEAE, treatment related (250 mg b.i.d., all grade): 3 (75.0) n (%) | TEAE (250 mg b.i.d., all grade): 4 (100.0) n (%) | TEAE, peposertib related (250 mg b.i.d., all grade): 3 (75.0) n (%) | TEAE, treatment related (250 mg b.i.d., all grade): 3 (75.0) n (%) | TEAEs leading to death (250 mg b.i.d., all grade): 0 n (%) | Treatment-related AE leading to death (250 mg b.i.d., all grade): 0 n (%) | IRR (250 mg b.i.d., grade ≥3): 0 n (%) | Immune-related AE (250 mg b.i.d., grade ≥3): 2 (50.0) n (%) | Serious TEAE (250 mg b.i.d., grade ≥3): 4 (100.0) n (%) | Serious TEAE, peposertib related (250 mg b.i.d., grade ≥3): 2 (50.0) n (%) | Serious TEAE, treatment related (250 mg b.i.d., grade ≥3): 3 (75.0) n (%) | TEAE (250 mg b.i.d., grade ≥3): 4 (100.0) n (%) | TEAE, peposertib related (250 mg b.i.d., grade ≥3): 2 (50.0) n (%) | TEAE, treatment related (250 mg b.i.d., grade ≥3): 3 (75.0) n (%) | TEAEs leading to death (250 mg b.i.d., grade ≥3): 0 n (%) | Treatment-related AE leading to death (250 mg b.i.d., grade ≥3): 0 n (%) | Serious TEAE: disease progression (300 mg b.i.d.): 2 n | IRR (300 mg b.i.d., all grade): 0 n (%) | Immune-related AE (300 mg b.i.d., all grade): 2 (33.3) n (%) | Serious TEAE (300 mg b.i.d., all grade): 4 (66.7) n (%) | Serious TEAE, peposertib related (300 mg b.i.d., all grade): 0 n (%) | Serious TEAE, treatment related (300 mg b.i.d., all grade): 1 (16.7) n (%) | TEAE (300 mg b.i.d., all grade): 6 (100.0) n (%) | TEAE, peposertib related (300 mg b.i.d., all grade): 3 (50.0) n (%) | TEAE, treatment related (300 mg b.i.d., all grade): 4 (66.7) n (%) | TEAEs leading to death (300 mg b.i.d., all grade): 2 (33.3) n (%) | Treatment-related AE leading to death (300 mg b.i.d., all grade): 0 n (%) | IRR (300 mg b.i.d., grade ≥3): 0 n (%) | Immune-related AE (300 mg b.i.d., grade ≥3): 2 (33.3) n (%) | Serious TEAE (300 mg b.i.d., grade ≥3): 4 (66.7) n (%) | Serious TEAE, peposertib related (300 mg b.i.d., grade ≥3): 0 n (%)
